# Test results taken from the supplement of paper PMC10307832.
# How the values were obtained:
# Experiment in all cases: relative viability (nuclei count vs DMSO), 5 days (fraction); higher = more cells survive
# Everolimus + Navitoclax = compound: CO[C@H]1C[C@@H]2CC[C@@H](C)[C@@](O)(O2)C(=O)C(=O)N2CCCC[C@H]2C(=O)O[C@H]([C@H](C)C[C@@H]2CC[C@@H](OCCO)[C@H](OC)C2)CC(=O)[C@H](C)/C=C(\C)[C@@H](O)[C@@H](OC)C(=O)[C@H](C)C[C@H](C)/C=C/C=C/C=C/1C [Everolimus] + CC1(C)CCC(c2ccc(Cl)cc2)=C(CN2CCN(c3ccc(C(=O)NS(=O)(=O)c4ccc(N[C@H](CCN5CCOCC5)CSc5ccccc5)c(S(=O)(=O)C(F)(F)F)c4)cc3)CC2)C1 [Navitoclax] (partner 0.5 µM)
# In short: (§1)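 For relative viability, nuclei counts in treated wells were divided by those in vehicle wells. Lung cancer cell lines had been pin-tool dosed in 1536-well plates the day after seeding and cultured for 5 days, then fixed and stained in one step (final 0.05% Triton X-100, 1% formaldehyde, 1 ug/ml Hoechst) and imaged at 4×. Doses were one drug alone or a fixed anchor-drug dose plus five library-drug doses (not always all listed) in √10 steps, and values are duplicate-plate medians.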
# Everolimus + Luminespib = compound: CO[C@H]1C[C@@H]2CC[C@@H](C)[C@@](O)(O2)C(=O)C(=O)N2CCCC[C@H]2C(=O)O[C@H]([C@H](C)C[C@@H]2CC[C@@H](OCCO)[C@H](OC)C2)CC(=O)[C@H](C)/C=C(\C)[C@@H](O)[C@@H](OC)C(=O)[C@H](C)C[C@H](C)/C=C/C=C/C=C/1C [Everolimus] + CCNC(=O)c1noc(-c2cc(C(C)C)c(O)cc2O)c1-c1ccc(CN2CCOCC2)cc1 [Luminespib] (partner 0.01 µM)
# In short: as §1
# Everolimus + Dasatinib = compound: CO[C@H]1C[C@@H]2CC[C@@H](C)[C@@](O)(O2)C(=O)C(=O)N2CCCC[C@H]2C(=O)O[C@H]([C@H](C)C[C@@H]2CC[C@@H](OCCO)[C@H](OC)C2)CC(=O)[C@H](C)/C=C(\C)[C@@H](O)[C@@H](OC)C(=O)[C@H](C)C[C@H](C)/C=C/C=C/C=C/1C [Everolimus] + Cc1nc(Nc2ncc(C(=O)Nc3c(C)cccc3Cl)s2)cc(N2CCN(CCO)CC2)n1 [Dasatinib] (partner 0.075 µM)
# In short: as §1
# Everolimus + Bortezomib = compound: CO[C@H]1C[C@@H]2CC[C@@H](C)[C@@](O)(O2)C(=O)C(=O)N2CCCC[C@H]2C(=O)O[C@H]([C@H](C)C[C@@H]2CC[C@@H](OCCO)[C@H](OC)C2)CC(=O)[C@H](C)/C=C(\C)[C@@H](O)[C@@H](OC)C(=O)[C@H](C)C[C@H](C)/C=C/C=C/C=C/1C [Everolimus] + CC(C)C[C@H](NC(=O)[C@H](Cc1ccccc1)NC(=O)c1cnccn1)B(O)O [Bortezomib] (partner 0.002 µM)
# In short: as §1
Cell Line,relative viability (Everolimus + Navitoclax; first compound 0.01 µM),relative viability (Everolimus + Navitoclax; first compound 0.03162 µM),relative viability (Everolimus + Navitoclax; first compound 0.1 µM),relative viability (Everolimus + Navitoclax; first compound 0.3162 µM),relative viability (Everolimus + Navitoclax; first compound 1 µM),relative viability (Everolimus + Luminespib; first compound 0.01 µM),relative viability (Everolimus + Luminespib; first compound 0.03162 µM),relative viability (Everolimus + Luminespib; first compound 0.1 µM),relative viability (Everolimus + Luminespib; first compound 0.3162 µM),relative viability (Everolimus + Luminespib; first compound 1 µM),relative viability (Everolimus + Dasatinib; first compound 0.01 µM),relative viability (Everolimus + Dasatinib; first compound 0.03162 µM),relative viability (Everolimus + Dasatinib; first compound 0.1 µM),relative viability (Everolimus + Dasatinib; first compound 0.3162 µM),relative viability (Everolimus + Dasatinib; first compound 1 µM),relative viability (Everolimus + Bortezomib; first compound 0.01 µM),relative viability (Everolimus + Bortezomib; first compound 0.03162 µM),relative viability (Everolimus + Bortezomib; first compound 0.1 µM),relative viability (Everolimus + Bortezomib; first compound 0.3162 µM),relative viability (Everolimus + Bortezomib; first compound 1 µM)
NCI-H1734,0.455,0.519,0.447,0.441,0.608,0.176,0.211,0.185,0.184,0.208,0.276,0.301,0.265,0.266,0.316,0.529,0.624,0.497,0.515,0.546
NCI-H1755,0.75,0.624,0.599,0.646,0.513,0.372,0.312,0.347,0.347,0.244,0.421,0.232,0.37,0.419,0.318,0.785,0.492,0.736,0.723,0.714
NCI-H1792,0.316,0.251,0.29,0.244,0.362,0.295,0.24,0.21,0.229,0.217,0.732,0.435,0.562,0.518,0.484,0.819,0.705,0.657,0.572,0.538
NCI-H1915,0.782,0.774,0.737,0.72,0.749,0.722,0.714,0.478,0.532,0.579,0.285,0.231,0.208,0.247,0.206,0.917,0.864,0.977,0.79,0.882
NCI-H1975,1.01,0.794,0.802,0.798,0.606,0.158,0.169,0.194,0.191,0.287,0.305,0.264,0.222,0.298,0.183,0.335,0.357,0.317,0.372,0.313
NCI-H1993,0.687,0.676,0.631,0.585,0.717,0.528,0.459,0.366,0.456,0.58,0.434,0.449,0.341,0.409,0.452,0.571,0.521,0.598,0.567,0.64
